Experimental data as given in the NIST ThermoML archive (doi:10.1021/je800984q).

What was measured:
[1] = Liquid; for viscosity / mass density: 298.15 K, 101 kPa; for viscosity: Capillary tube (Ostwald / Ubbelohde) method; for mass density: Vibrating tube method
[2] = xn = mol fraction of the nth substance listed; conditions: 298.15 K, 101 kPa, Liquid; for viscosity: Capillary tube (Ostwald / Ubbelohde) method; for mass density: Vibrating tube method

CCOC(=O)OCC [diethyl carbonate]
[1]
Conditions	mass density [kg/m3]	viscosity [mPa·s]
–	969	0.764

[1]
Conditions	vapor or sublimation pressure [kPa]
343.77 K	13.8
351.67 K	19.3
355.63 K	22.7
358.29 K	26
363.84 K	31.3
366.98 K	35.2
369.75 K	39.1
372.28 K	42.8
374.61 K	46.5
377.05 K	50.5
379.59 K	55
381.49 K	58.8
383.37 K	63.1
383.57 K	63.5
386.18 K	68.5
387.61 K	72.8
390.35 K	78.5
392.39 K	84
393.93 K	88.2
395.72 K	93.4
398.28 K	101.5

CCOC(=O)OCC [diethyl carbonate] + C1CC2C3CCC(C3)C2C1
[2], x1 = 1
Conditions	mass density [kg/m3]	viscosity [mPa·s]
–	969	0.764

C1CC2C3CCC(C3)C2C1 (stereo not given) [tricyclo[5.2.1.0(2,6)]decane]
[1]
Conditions	mass density [kg/m3]	viscosity [mPa·s]
–	931.4	2.739

[1]
Conditions	vapor or sublimation pressure [kPa]
393.98 K	15
396.02 K	16.6
401.42 K	20.6
413.88 K	30.3
418.34 K	34.8
426.86 K	44.9
431.22 K	50.7
434.56 K	55.8
436.68 K	59.2
439.31 K	63.2
441.13 K	66.6
442.7 K	69.5
442.81 K	69.8
444.37 K	72.9
445.73 K	75.1
446.13 K	75.9
450.08 K	83.9
457.66 K	101.1

C1CC2C3CCC(C3)C2C1 (stereo not given) [tricyclo[5.2.1.0(2,6)]decane] + CCOC(=O)OCC
[2]
Conditions	mass density [kg/m3]	viscosity [mPa·s]
x2 = 0	931.4	2.739
x2 = 0.1141	933.1	2.14
x2 = 0.2235	935.3	1.757
x2 = 0.3303	938.1	1.496
x2 = 0.4355	941.3	1.292
x2 = 0.536	944.8	1.149
x2 = 0.6336	948.8	1.026
x2 = 0.7288	953.4	0.938
x2 = 0.8207	958.2	0.861
x2 = 0.9109	963.5	0.814
